According to a compilation of properties of binary mixtures (doi:10.1007/s10953-017-0578-y):

Assay: xn = mol fraction of the nth substance listed
Details: 100 kPa

CNc1ccccc1 + CC[n+]1ccn(C)c1.F[B-](F)(F)F
speed of sound [m/s]
Details | x2 = 0 | x2 = 0.1046 | x2 = 0.2048 | x2 = 0.3057 | x2 = 0.3985 | x2 = 0.5064 | x2 = 0.6045 | x2 = 0.6994 | x2 = 0.8005 | x2 = 0.9084
293.15 K | – | 1603.9 | 1617.6 | 1627.9 | 1632.7 | 1632.5 | – | 1627.7 | 1625.9 | 1627
303.15 K | – | 1568.9 | 1586.9 | – | 1603.8 | 1604.7 | 1604.1 | 1602.6 | 1601.3 | 1604
313.15 K | 1511.7 | – | – | 1567 | 1574.4 | 1576.1 | 1578.3 | 1577.9 | 1576.2 | 1579.4
323.15 K | 1476.4 | 1500.3 | 1523.6 | 1537.2 | 1545.6 | 1549 | – | 1551.6 | 1550.4 | 1553.3

CC[n+]1ccn(C)c1.F[B-](F)(F)F + CNc1ccccc1
x1 = 1
Details | speed of sound [m/s]
293.15 K | 1632.6
303.15 K | 1609.5
313.15 K | 1586.2
323.15 K | 1563.4
